Measurements as given in PubChem BioAssay AID743417 (Broad Institute, 2014).
Inconclusive results are not listed.

tested on: Clone20 osteoblast Shn3 3'UTR firefly luciferase, 24 h; experiment: Shn3 3'UTR reporter inhibitors, dose response, cell-based, Clone20 osteoblasts, luminescence, dry powder, set 2 (AID 743417)

Point of comparison: `Cc1ccc(C(C)C)cc1NC(=O)Nc1ccc([N+](=O)[O-])cc1`, AC50 7.19 µM. Against it:
- C=CCOC(=O)c1[nH]c2c(c1C)C(=O)CC(c1cc(OC)c(OC)c(OC)c1)C2 (stereo unspecified) — 3.9-fold lower, 1.83 µM
- Cc1cc2sc3ccc(C#CC4(O)CCCCC4)cc3c(=O)c2cc1C — lower, < 0.26 µM
- CCCCCOc1ccc(Br)cc1CSC(=N)N — 4.9-fold lower, 1.47 µM
- COc1ccccc1-c1cc(C(F)(F)F)nc(S(=O)(=O)CCCC(=O)N2CCCCC2C)n1 (stereo unspecified) — 2.7-fold lower, 2.65 µM
- COc1cccc(N2CCN(c3ncnc4c3[nH]c3ccc(F)cc34)CC2C)c1 (stereo unspecified) — 5.5-fold lower, 1.31 µM
- OC(c1cc(-c2cccc(Cl)c2)nc2ccccc12)C1CCCCN1 (stereo unspecified) — 1.5-fold higher, 10.8 µM
- O=C1C=C(c2ccnc3cc(Cl)ccc23)C[C@@H](c2ccc3c(c2)OCO3)C1 — 5.3-fold lower, 1.36 µM
- CC(C)(C)n1nnnc1C(c1ccc(C(F)(F)F)cc1)N(Cc1ccccc1)Cc1ccco1 (stereo unspecified) — 1.5-fold lower, 4.74 µM
- Cc1csc(=O)n1CC(=O)OCC(=O)c1c(N)n(C)c(=O)n(C)c1=O — 3.8-fold higher, 27.1 µM
- O=C(c1ccc(Cl)cc1)C1CCCN(Cc2cccc3ncccc23)C1 (stereo unspecified) — 1.6-fold lower, 4.52 µM
- CCOc1ccc(-c2nnc(N3CCCCC3)c3ccccc23)cc1 — 2.1-fold higher, 14.9 µM
- CC[C@H]1CN2CCc3cc(OC)c(OC)cc3[C@@H]2C[C@@H]1C[C@H]1NCCc2cc(OC)c(OC)cc21 — lower, < 0.26 µM
- CCOC(=O)c1c(NC(=O)COc2cccc3c2CCN(C)C3=O)sc2c1CCC2 — within 1.5-fold, 5.44 µM
- CC1(C)CC[C@]2(C(=O)n3ccnc3)CC[C@]3(C)[C@H](C(=O)C=C4[C@@]5(C)C=C(C#N)C(=O)C(C)(C)[C@@H]5CC[C@]43C)[C@@H]2C1 — lower, < 0.26 µM
- CSc1nc(N)nc2c1ncn2CC(=O)N1CCN(Cc2c(C)cc(C)cc2C)CC1 — 14-fold lower, 0.526 µM
- COc1ccccc1CNc1nc(NCc2ccc(C(C)C)cc2)c2sccc2n1 — within 1.5-fold, 6.81 µM
- Cc1cc(Nc2ccccc2)nc(NCc2ccccc2)n1 — 6.9-fold lower, 1.04 µM
- NC(=O)CC(NC(=O)c1ccc(Br)cc1)c1ccc(N2CCCCCC2)c([N+](=O)[O-])c1 (stereo unspecified) — within 1.5-fold, 7.66 µM
- CCCOc1ccc(C(=O)NNC(=S)NC(=O)CC)cc1 — 3.4-fold higher, 24.4 µM
- CC(C)(C)n1ncc2c(=O)n(Cc3cccc(Cn4cnc5c(cnn5C(C)(C)C)c4=O)c3F)cnc21 — 6.6-fold lower, 1.09 µM
- CN(C)CC(C(=O)Cc1ccccc1)c1ccccc1 (stereo unspecified) — within 1.5-fold, 7.81 µM
- Clc1ccc(C[n+]2cc(-c3ccccc3)n3c2CCCCC3)c(Cl)c1 — 6-fold lower, 1.2 µM
- CCOC(=O)c1oc2ccc(S(=O)(=O)n3nc(-c4ccccc4)cc3N)cc2c1C — 8.4-fold lower, 0.854 µM
- Cn1cc([N+](=O)[O-])c(C(=O)Nc2cc(Oc3ccccc3)cc([N+](=O)[O-])c2)n1 — within 1.5-fold, 5.41 µM
- O=C(CN(C(=O)c1ccc(Cl)cc1)C1CCCCC1)Nc1ccc(Cl)c([N+](=O)[O-])c1 — within 1.5-fold, 8.11 µM
- CCCCCCNC(=O)O[C@H]1Cn2c(=O)ccc(=O)n2[C@@H]2CN(S(=O)(=O)c3ccc(C)cc3)C[C@]12O — 2-fold higher, 14.1 µM
- COc1cc(Nc2nc(-c3ccccc3)c3cc(C)ccc3n2)cc(OC)c1OC — within 1.5-fold, 6.55 µM
- Cc1ccc(Cl)cc1N1CCN(C(=O)C2CCC(=O)N(C3CCCCCC3)C2)CC1 (stereo unspecified) — 2.3-fold lower, 3.14 µM
- O=C1C=CC(O)(c2cc(=O)c3c(O)cc(O)cc3o2)C=C1 — within 1.5-fold, 5.12 µM
- CCN(CC)c1ccc(NC(=O)CN2C(=O)CSc3ncccc32)c(C)c1 — 4-fold lower, 1.78 µM
- COc1ccc(C(=O)Nc2nc3ccccc3s2)c(OC)c1 — 14-fold lower, 0.523 µM
- CC1Cc2ccccc2N1Cc1cccc(S(=O)(=O)N(C)C)c1 (stereo unspecified) — 4.6-fold higher, 33 µM
- CC(NC(=O)c1cc(COc2ccc3ncccc3c2)on1)c1ccc(F)cc1 (stereo unspecified) — 3.2-fold lower, 2.28 µM
- COCCN(C(=O)COC(=O)C1CCC(C(C)(C)C)CC1)c1c(N)n(Cc2ccccc2)c(=O)[nH]c1=O (stereo unspecified) — within 1.5-fold, 5.15 µM
- CN(c1cccc(NC(=O)CN(c2ccc(C34CC5CC(CC(C5)C3)C4)cc2)S(C)(=O)=O)c1)S(C)(=O)=O — within 1.5-fold, 7.58 µM
- COC(=O)c1ccc(N2CCN(S(=O)(=O)c3ccc(C)cc3)CC2)c([N+](=O)[O-])c1 — 1.9-fold lower, 3.88 µM
- COc1ccc(CN(C)c2ccc(S(=O)(=O)N3CCN(C)CC3)cc2[N+](=O)[O-])cc1OC — 10-fold lower, 0.691 µM
- CC(C)N(CCC(=O)c1ccc2ccccc2c1)Cc1ccccc1 — 1.7-fold lower, 4.22 µM
- C=C1C(=O)OC2C=C(CO)C3OC3C3OC3(C)CC(OC(=O)/C(=C/C)COC(C)=O)C12 (stereo unspecified) — within 1.5-fold, 5.89 µM
- O=C(Nc1nc(-c2ccccn2)cs1)c1ccc(Cl)s1 — 8.8-fold lower, 0.817 µM
- CCCCNc1nc2c(c(=O)n(C)c(=O)n2C)n1Cc1cccc(OC)c1 — 25-fold lower, 0.284 µM
- Cc1cccc(NC(=O)Cn2cc(C(=O)C3CC3)c3ccccc32)c1C — 3-fold lower, 2.39 µM
- c1csc(CNc2ncnc3sccc23)c1 — 4-fold lower, 1.8 µM
- Cc1c(C)c2ccc(OCC(=O)Nc3ccccn3)c(C)c2oc1=O — 17-fold lower, 0.416 µM
- CN1C(=O)c2cccc(NCCCCCCN3C(=O)c4ccccc4C3=O)c2C1=O — within 1.5-fold, 5.57 µM
- CC(C)C1C(=O)N(Cc2cn(CCC3OCCO3)nn2)CCS(=O)(=O)N1Cc1ccc(-c2ccc(Cl)c(Cl)c2)cc1 (stereo unspecified) — 5.6-fold lower, 1.28 µM
- CCOC(=O)c1cnc(-n2nc(C)cc2C)nc1NC1CCCCC1 — 2.4-fold lower, 3.01 µM
- CCc1ccc(OCCNc2cc(N3CCNC(C)C3)ccc2[N+](=O)[O-])cc1 (stereo unspecified) — 2.2-fold higher, 15.6 µM
- CN(C(=O)OC(C)(C)C)c1ccc(-c2nc3ccccc3s2)cc1 — lower, < 0.26 µM
- COc1ccc(NS(=O)(=O)c2ccc(N3CCCCC3)c(N)c2)cc1 — 8.7-fold lower, 0.824 µM
- O=C1CCc2cccc(O)c2N1 — 1.7-fold higher, 12.2 µM
- O=C1NC2C(=CC(O)C(O)C2O)c2cc3c(c(O)c21)OCO3 (stereo unspecified) — lower, < 0.26 µM
- Oc1cc(-c2ccncc2)cc2cccnc12 — within 1.5-fold, 5.4 µM
- C=C1CC2(OC1=O)c1ccccc1CCc1ccccc12 — 5.6-fold lower, 1.28 µM
- COc1ccc(NC(=O)c2sc3ncnc(N4CCN(c5ccccn5)CC4)c3c2C)cc1Cl — 1.8-fold lower, 4.08 µM
- COc1ccc(Cc2nccc3cc(OC)c(OC)cc23)cc1OC — 2.9-fold lower, 2.48 µM
- O=S1(=O)C=C(Sc2nnc(-c3ccccc3)o2)c2ccccc21 — 4.2-fold lower, 1.7 µM
- COc1ccc([C@@]23Oc4cc(OC)cc(OC)c4[C@]2(O)[C@H](O)[C@H](C(=O)N(C)C)[C@H]3c2ccccc2)cc1 — lower, < 0.26 µM
- COCCOc1nc2c(c(=O)n(C)c(=O)n2C)n1Cc1cccc(OC)c1 — 3.2-fold lower, 2.23 µM
- Cc1cc(C)c(O)c(-c2cc(C(=O)Nc3ccc(S(=O)(=O)N4CCOCC4)cc3)[nH]n2)c1 — within 1.5-fold, 5.48 µM
